# Experimental data taken from patent US9115122B2, “Non-ATP dependent inhibitors of extracellular signal-regulated kinase (ERK)” (UNIVERSITY OF MARYLAND, BALTIMORE, priority 2012, dated 2015).
# Read-outs that look alike come from different tables or passages of the source.
# What was measured:
# Format in all cases: cell-based
# [1] = tested on: RPMI7951 melanoma cells; experiment: Dose-response growth inhibition (GI50) of select compounds; settings: two days
# Method: (§1) An example of the dose response curve for compound 30h and the BRaf inhibitor PLX4032 for inhibiting the growth of melanoma cell lines is shown in FIG. 14. […] A summary of GI50 values for select compounds along with comparisons to know ERK pathway inhibitors in various cell lines is shown in Table 13. […] First, thiazolidinedione compounds have been identified to be selective inhibitors of cancer cell lines containing activated ERK signaling. Second, changes in the 4-ethoxyphenyl component of the parent compound 76 improve selectivity and potency for inhibiting melanoma cell growth. Third, compound 30h is a potent inhibitor of melanoma cell lines that have become resistant to the clinically relevant BRaf and MEK inhibitors. […] Lastly, 30h is as potent as the ATP-competitive pyrazolopyridazinamine ERK inhibitor (FR180204) in preventing melanoma cell proliferation and provides an alternative non-ATP-dependent approach to target cancer cells that are dependent on active ERK signaling.
# (§2) Melanoma cells (A375, SK-MEL-28, and RPMI7951) were seeded at a density of 5,000 per well in 96-well plate. After overnight incubation, cells were treated with varying doses of PLX4032 (A) or 31h (B) for two days. Cell viability was determined by the addition of Cell Titer-Blue Reagent (20 μL/well) followed by 2 hours of incubation at 37° C. after which fluorescence was recorded (555/585 nm). Cell viability was expressed as percentage of vehicle control and data represent the average of three individual experiments.
# [2] = tested on: A375 melanoma cells; experiment: as above; settings: two days
# Method: as §1, §2
# [3] = tested on: SK-MEL-28 melanoma cells; experiment: as above; settings: two days
# Method: as §1, §2
# [4] = tested on: HeLa cells; experiment: as above
# [5] = tested on: Jurkat cells; experiment: as above
# [6] = tested on: A375 melanoma cells; experiment: Cell proliferation WST-1 assay, single dose (Example 4); settings: 100 μM, 48 hours
# Procedure, shortened: (§3)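 Cells (~5000/well) recovered 16-20 hours after seeding, then were exposed to test compound for 48 hours. WST-1 reagent was added and absorbance read at 450 nm, background at 650 nm subtracted. Values normalized to DMSO-only control cells.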
# [7] = tested on: Jurkat T-cell leukemia cells; experiment: as above; settings: 100 μM, 48 hours
# Procedure, shortened: as §3
# [8] = tested on: HL-60 leukemic cells; experiment: as above; settings: 100 μM, 48 hours
# Procedure, shortened: as §3
# [9] = tested on: RPMI-7951 melanoma cells; experiment: as above; settings: 100 μM, 48 hours
# Procedure, shortened: as §3
# [10] = tested on: SK-MEL-28 melanoma cells; experiment: as above; settings: 100 μM, 48 hours
# Procedure, shortened: as §3
# [11] = tested on: HeLa cervical carcinoma cells; experiment: as above; settings: 100 μM, 48 hours
# Procedure, shortened: as §3
# [12] = tested on: serum response element (SRE); experiment: SRE promoter luciferase assay, HeLa cells (Example 4); settings: EGF
# Method: HeLa cells were seeded in 24-well plates (4×10^4 cells/well) and incubated 18 hours prior to achieve ˜60-70% confluent. Cells were transfected with activator protein-1 (pAP1(PMA)-TA-Luc; Clontech) or the serum response element (pGL4.33-SRE; Promega) luciferase reporter plasmids (250 ng/well) using Lipofectamine™ (Invitrogen). After 16 hours, cells were treated with increasing amount of compounds as indicated for 20 minutes, followed by stimulation with EGF (25 ng/mL) for 4.5 hr. The luciferase activity in the cell extracts was determined with a Dual Luciferase Assay System (Promega) according to the manufacturer's instructions. Luciferase activities were monitored with a Lumat LB 9507 luminometer (Berthold Technology) and data were normalized to the amount of protein in each sample.
SMILES,"GI50 ([1]; Homo sapiens, RPMI-7951, 48 h) [µM]","GI50 ([2]; Homo sapiens, A-375, 48 h) [µM]","GI50 ([3]; Homo sapiens, SK-MEL-28, 48 h) [µM]","GI50 ([4]; Homo sapiens, HeLa) [µM]","GI50 ([5]; Homo sapiens, Jurkat) [µM]",Cell Viability (% of Vehicle) A375 [6],Cell Viability (% of Vehicle) Jurkat [7],Cell Viability (% of Vehicle) HL-60 [8],Cell Viability (% of Vehicle) RPMI-7951 [9],Cell Viability (% of Vehicle) SK-MEL-28 [10],Cell Viability (% of Vehicle) HeLa [11],inhibition of ERK-mediated SRE promoter activity [12],GI50 [1] [µM],GI50 [2] [µM],GI50 [3] [µM],GI50 [4] [µM],GI50 [5] [µM]
"Cn1cnc2c(F)c(Nc3ccc(Br)cc3Cl)c(C(=O)NOCCO)cc21 [AZD6244, reference compound]",20,0.03,0.17,> 10,> 10,–,–,–,–,–,–,–,–,–,–,–,–
"CCOc1ccc(/C=C2\SC(=O)N(CCCN)C2=O)cc1 [Compound 22a, (Z)-3-(3-aminopropyl)-5-(4-ethoxybenzylidene)thiazolidine-2,4-dione]",17,24,46,–,–,0.7 ± 0.1 % of Vehicle,9.0 ± 2 % of Vehicle,8.0 ± 72 % of Vehicle,0.6 ± 0.1 % of Vehicle,0.5 ± 0.01 % of Vehicle,12 ± 2 % of Vehicle,selective inhibition of the SRE promoter activity,–,–,–,–,–
"Cc1ccc(/C=C2\SC(=O)N(CCN)C2=O)cc1 [Compound 30d, (Z)-3-(2-aminoethyl)-5-(4-methylbenzylidene)thiazolidine-2,4-dione]",–,–,–,–,–,23 ± 6 % of Vehicle,71 ± 6 % of Vehicle,4.8 ± 2 % of Vehicle,23 ± 1 % of Vehicle,31 ± 7 % of Vehicle,54 ± 3 % of Vehicle,–,–,–,–,–,–
"CCCc1ccc(/C=C2\SC(=O)N(CCN)C2=O)cc1 [Compound 30e, (Z)-3-(2-aminoethyl)-5-(4-propylbenzylidene)thiazolidine-2,4-dione]",–,–,–,–,–,0.6 ± 0.1 % of Vehicle,16 ± 8 % of Vehicle,5.9 ± 2 % of Vehicle,0.7 ± 0.1 % of Vehicle,0.6 ± 0.4 % of Vehicle,11 ± 2 % of Vehicle,–,–,–,–,–,–
"NCCN1C(=O)S/C(=C\c2ccc(O)cc2)C1=O [Compound 30f, (Z)-3-(2-aminoethyl)-5-(4-hydroxybenzylidene)thiazolidine-2,4-dione]",–,–,–,–,–,8.8 ± 2 % of Vehicle,96 ± 3 % of Vehicle,17 ± 12 % of Vehicle,24 ± 5 % of Vehicle,38 ± 3 % of Vehicle,63 ± 10 % of Vehicle,–,–,–,–,–,–
"NCCN1C(=O)S/C(=C\c2ccccc2O)C1=O [Compound 30i, (Z)-3-(2-aminoethyl)-5-(2-hydroxybenzylidene)thiazolidine-2,4-dione]",–,–,–,–,–,78 ± 3 % of Vehicle,99 ± 5 % of Vehicle,24 ± 8 % of Vehicle,102 ± 10 % of Vehicle,85 ± 9 % of Vehicle,68 ± 3 % of Vehicle,–,–,–,–,–,–
"CC(C)COc1ccccc1/C=C1\SC(=O)N(CCN)C1=O [Compound 30j, (Z)-3-(2-aminoethyl)-5-(2-isobutoxybenzylidene)thiazolidine-2,4-dione]",–,–,–,–,–,0.8 ± 0.02 % of Vehicle,1.8 ± 0.1 % of Vehicle,9.5 ± 3.4 % of Vehicle,1.0 ± 0.04 % of Vehicle,1.0 ± 0.1 % of Vehicle,0.8 ± 0.1 % of Vehicle,–,–,–,–,–,–
"NCCN1C(=O)S/C(=C\c2ccccc2OCc2ccccc2)C1=O [Compound 30k, (Z)-3-(2-aminoethyl)-5-(2-(benzyloxy)benzylidene)thiazolidine-2,4-dione]",–,–,–,–,–,0.6 ± 0.03 % of Vehicle,1.5 ± 0.1 % of Vehicle,8.3 ± 3.4 % of Vehicle,0.9 ± 0.1 % of Vehicle,0.6 ± 0.04 % of Vehicle,0.6 ± 0.1 % of Vehicle,–,–,–,–,–,–
"N#Cc1ccc(COc2ccccc2/C=C2\SC(=O)N(CCN)C2=O)cc1 [Compound 30l, (Z)-4-((2-((3-(2-aminoethyl)-2,4-dioxothiazolidin-5-ylidene)methyl)phenoxy)methyl)benzonitrile]",–,–,–,–,–,0.5 ± 0.04 % of Vehicle,6.7 ± 1 % of Vehicle,5.7 ± 2 % of Vehicle,0.6 ± 0.03 % of Vehicle,0.5 ± 0.01 % of Vehicle,8.0 ± 2 % of Vehicle,–,–,–,–,–,–
"Nc1[nH]nc2nnc(-c3c(-c4ccccc4)nn4ccccc34)cc12 [FR180204, reference compound]",–,–,–,–,–,–,–,–,–,–,–,–,11,5,4,> 10,> 10
"CCCS(=O)(=O)Nc1ccc(F)c(C(=O)c2c[nH]c3ncc(-c4ccc(Cl)cc4)cc23)c1F [PLX4032, reference compound]",11,0.07,0.38,> 10,> 10,–,–,–,–,–,–,–,–,–,–,–,–
